This is an account of results in PubChem BioAssay (NCI).

Several values for one entry are separate records, joined by “and”; a condition that tells them apart may be missing. Equal entries are not always repeated.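 Step 1: Grow cells in 96-well plates. Step 2: Expose to compound for 48 hours at 5 concentrations. Step 3: Interpolate endpoints linearly; if unreached, use highest concentration. The concentration for 50% growth inhibition is given as GI50. At the TGI there is no net growth.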 A value given as a limit tells only on which side of the number the result lay.

Test systems include HCT-15 colon; CCRF-CEM leukemia; OVCAR-5 ovarian; SNB-75 CNS; OVCAR-8 ovarian; M14 melanoma; NCI-H460 lung; MALME-3M melanoma; SN12C renal; HCT-116 colon.
Assay in all cases: NCI anticancer screen, dose series, 48 h

For the compound `C=CC[C@@]1(C#N)C[C@H](C[C@]2(C#N)C[C@H](CCl)OC(C)(C)O2)OC(C)(C)O1`, the TGI with HCT-15 colon, in the test with CCRF-CEM leukemia, in the test on OVCAR-5 ovarian, in the test with SNB-75 CNS, in the test with OVCAR-8 ovarian and in the test with M14 melanoma was above 100 µM in each case. The TGI with NCI-H460 lung, in the test with MALME-3M melanoma, in the test on SN12C renal and with HCT-116 colon was above 100 µM in each case.
On to `O=C1/C(=C/c2ccc(C(F)(F)F)cc2)COc2ccc(O)cc21`, for which the GI50 is 1.66 µM with HCT-15 colon; 0.228 µM in the test on CCRF-CEM leukemia; 2.18 µM with OVCAR-5 ovarian; 13.9 µM with SNB-75 CNS; 3.26 µM in the test with OVCAR-8 ovarian; 3.24 µM with M14 melanoma. Moreover, the GI50 with NCI-H460 lung was 3.24 µM; in the test with MALME-3M melanoma it was 2.05 µM; in the test with SN12C renal it was 1.73 µM; with HCT-116 colon it was 1.77 µM. Besides, the TGI was found to be 3.47 µM in the test on HCT-15 colon; 1.42 µM in the test with CCRF-CEM leukemia; 5.49 µM in the test on OVCAR-5 ovarian; 27.8 µM in the test with SNB-75 CNS; 11.1 µM in the test with OVCAR-8 ovarian; 10.6 µM in the test with M14 melanoma. The TGI in the test with NCI-H460 lung amounted to 10.4 µM; with MALME-3M melanoma, 5.1 µM; in the test on SN12C renal, 3.46 µM; with HCT-116 colon, 3.42 µM.
Take `Oc1oc(-c2ccccc2)nc1/C=C1/C=NN=N1`: the TGI in the test with HCT-15 colon, in the test on CCRF-CEM leukemia, in the test on OVCAR-5 ovarian, in the test on SNB-75 CNS, with OVCAR-8 ovarian and with M14 melanoma was above 100 µM throughout. Moreover, the TGI in the test with NCI-H460 lung, in the test on MALME-3M melanoma, in the test on SN12C renal and in the test on HCT-116 colon was above 100 µM throughout.
For `O=C(Nn1c2c(sc1=NC1CC1)C(=O)c1ccccc1C2=O)c1cc2ccc1CCc1ccc(cc1)CC2`, the GI50 was 1.51 µM with HCT-15 colon; 2.53 µM in the test with CCRF-CEM leukemia; 1.83 µM with OVCAR-5 ovarian; 1.32 µM in the test on SNB-75 CNS; 2.62 µM in the test on OVCAR-8 ovarian; 1.33 µM with M14 melanoma. For the same compound, the GI50 was 3.35 µM in the test on NCI-H460 lung, 0.57 µM in the test on MALME-3M melanoma, 1.34 µM in the test on SN12C renal and 1.94 µM in the test with HCT-116 colon. Moreover, the TGI is 3.24 µM in the test on HCT-15 colon; above 100 µM with CCRF-CEM leukemia; 3.53 µM in the test with OVCAR-5 ovarian; 6.04 µM with SNB-75 CNS; 11.6 µM in the test on OVCAR-8 ovarian; 2.83 µM in the test with M14 melanoma. The TGI was 12.2 µM with NCI-H460 lung, 1.75 µM in the test with MALME-3M melanoma, 2.61 µM in the test with SN12C renal and 6.45 µM with HCT-116 colon.
For the compound `CN1CCN(c2ccc([N+](=O)[O-])c3no[n+]([O-])c23)CC1`, the GI50 in the test on HCT-15 colon is 0.227 µM; in the test with OVCAR-5 ovarian, 1.49 µM; with SNB-75 CNS, 0.175 µM; with OVCAR-8 ovarian, 0.145 µM; with M14 melanoma, 0.177 µM; in the test on NCI-H460 lung, 0.118 µM. Also, the GI50 in the test with MALME-3M melanoma was 0.378 µM; with SN12C renal it was 0.357 µM; with HCT-116 colon it was 0.152 µM. In addition, the TGI with HCT-15 colon was 2.15 µM and 1.21 µM; in the test on CCRF-CEM leukemia it was 0.582 µM; in the test with OVCAR-5 ovarian, 4.25 µM and 3.27 µM; in the test with OVCAR-8 ovarian, 1.75 µM and 0.34 µM; with M14 melanoma, 1.7 µM and 0.927 µM; in the test with NCI-H460 lung it was 1.17 µM and 0.764 µM. Also, the TGI in the test on MALME-3M melanoma is 0.712 µM and 1.08 µM; with SN12C renal it was 1.29 µM and 1.37 µM; with HCT-116 colon it was 1.63 µM and 0.634 µM.
Turning to `CC(=O)NNc1nc(C)c(C(/C=C/c2ccc(Cl)cc2)=N/NC(=S)NN)s1`, the TGI in the test on HCT-15 colon, with CCRF-CEM leukemia, with OVCAR-5 ovarian, with SNB-75 CNS, in the test with OVCAR-8 ovarian and in the test on M14 melanoma was above 100 µM in each case. In addition, the TGI in the test on NCI-H460 lung, in the test on MALME-3M melanoma, in the test with SN12C renal and in the test on HCT-116 colon was above 100 µM in each case.
With `C[n+]1ccc2[nH]c3ccccc3c2c1`, the TGI in the test with HCT-15 colon, in the test with CCRF-CEM leukemia, in the test on OVCAR-5 ovarian, in the test on SNB-75 CNS, with OVCAR-8 ovarian and in the test with M14 melanoma was above 100 µM in each case. In addition, the TGI with NCI-H460 lung is above 100 µM; with MALME-3M melanoma it was 99.4 µM; with SN12C renal, above 100 µM; in the test on HCT-116 colon, above 100 µM.
For the compound `Cc1cc(S(=O)(=O)Nc2nc3ccsc3c(=O)n2Cc2ccccc2)c(S)cc1Cl`, the GI50 was 74.5 µM in the test with HCT-15 colon; 34 µM with CCRF-CEM leukemia; 32.9 µM with OVCAR-5 ovarian; above 100 µM with SNB-75 CNS; 44.5 µM in the test with OVCAR-8 ovarian; 21.8 µM in the test on M14 melanoma. Also, the GI50 with NCI-H460 lung was 23.6 µM; in the test on MALME-3M melanoma, 21.2 µM; with SN12C renal, 31.1 µM; in the test on HCT-116 colon, 19.2 µM. In addition, the TGI in the test on HCT-15 colon is above 100 µM; in the test with CCRF-CEM leukemia it was above 100 µM; in the test on OVCAR-5 ovarian it was 97.5 µM; in the test on SNB-75 CNS, above 100 µM; in the test on OVCAR-8 ovarian, above 100 µM; with M14 melanoma, 49.6 µM. In addition, the TGI with NCI-H460 lung came to 71 µM; with MALME-3M melanoma, 50.1 µM; in the test on SN12C renal it was 58.8 µM; in the test with HCT-116 colon, 37.7 µM.
Consider `NC(=O)N/N=C1/CCCC/C1=C\c1ccccc1`, for which the TGI in the test with HCT-15 colon, in the test with CCRF-CEM leukemia, in the test with OVCAR-5 ovarian, in the test on SNB-75 CNS, in the test with OVCAR-8 ovarian and in the test on M14 melanoma was above 100 µM each time. For the same compound, the TGI with NCI-H460 lung, with MALME-3M melanoma, with SN12C renal and with HCT-116 colon was above 100 µM in each case.
`O=C(Cc1ccccc1)NN1C(=O)C(Cl)C1c1ccccc1` (stereo not drawn): the TGI in the test on HCT-15 colon is above 100 µM; in the test with CCRF-CEM leukemia it was 71.4 µM; in the test on OVCAR-5 ovarian it was above 100 µM; with SNB-75 CNS it was above 100 µM; with OVCAR-8 ovarian, above 100 µM; with M14 melanoma, above 100 µM. Further, the TGI in the test on NCI-H460 lung, in the test with MALME-3M melanoma, in the test on SN12C renal and with HCT-116 colon was above 100 µM throughout.
